PubChem BioAssay (NCI)
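Values below derive from 48-hour exposures of cells grown in 96-well plates, with endpoints linearly interpolated between the two concentrations bracketing the appropriate inhibition level. Here, GI50 denotes the concentration required for 50% inhibition of growth. Definition used: TGI = concentration required for complete inhibition of growth.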

Experiments:
Test in all cases: growth of human tumour cells (NCI), 48 h
A549 NSCLC = tested on: A549 NSCLC
HCT-15 colon = tested on: HCT-15 colon
HL-60(TB) leukemia = tested on: HL-60(TB) leukemia
MDA-MB-231 breast = tested on: MDA-MB-231 breast
NCI/ADR-RES ovarian = tested on: NCI/ADR-RES ovarian
RPMI-8226 leukemia = tested on: RPMI-8226 leukemia
SF-539 CNS = tested on: SF-539 CNS
SK-MEL-28 melanoma = tested on: SK-MEL-28 melanoma
RXF 393 renal = tested on: RXF 393 renal

Compound | TGI (A549 NSCLC) | TGI (HCT-15 colon) | TGI (HL-60(TB) leukemia) | TGI (MDA-MB-231 breast) | TGI (NCI/ADR-RES ovarian) | TGI (RPMI-8226 leukemia) | TGI (SF-539 CNS) | TGI (SK-MEL-28 melanoma) | TGI (RXF 393 renal) | GI50 (A549 NSCLC) | GI50 (HL-60(TB) leukemia) | GI50 (NCI/ADR-RES ovarian) | GI50 (RPMI-8226 leukemia) | GI50 (RXF 393 renal) | GI50 (SK-MEL-28 melanoma) | GI50 (HCT-15 colon) | GI50 (MDA-MB-231 breast) | GI50 (SF-539 CNS)
N#C[C@@]12CCCC(=O)[C@@H]1[C@H]1CCC[C@H]12 | 37 µM | 38.2 µM | 34.1 µM | 31.2 µM | 59.4 µM | 32.3 µM | 59.9 µM | 35.3 µM |  |  |  |  |  |  |  |  |  | 
CC[C@@]1(O)C(=O)OCc2c1cc1n(c2=O)Cc2c-1nc1ccccc1c2/C=N\NC(=O)C(N)Cc1cnc[nH]1 (stereo partly drawn) | > 100 µM | > 100 µM |  | > 100 µM |  | 44 µM | 0.538 µM | > 100 µM | 9.59 µM |  |  |  |  |  |  |  |  | 
CC(=O)c1c(-c2ccccc2)c(-c2ccc(OCCN(C)C)cc2)n2ccccc12 | 50.7 µM | 22.7 µM | 36.3 µM | 31 µM | 33.9 µM | 60.2 µM | 27.1 µM | 28.6 µM |  |  |  |  |  |  |  |  |  | 
CC(C)(C)OC(=O)Nc1cc(-c2ccccc2)co1 | > 100 µM | > 100 µM | > 100 µM | > 100 µM | > 100 µM | > 100 µM | > 100 µM | > 100 µM |  |  |  |  |  |  |  |  |  | 
CN[C@@H](C)[C@H](OP(=O)(O)OC1[C@@H](O)[C@H](O)C(O)[C@H](O)[C@@H]1O)c1ccccc1 (stereo partly drawn) | > 100 µM | > 100 µM | > 100 µM | > 100 µM | > 100 µM | > 100 µM | > 100 µM | > 100 µM |  |  |  |  |  |  |  |  |  | 
O=C1/C(=C/c2cccs2)NC(=S)N1CN1CCOCC1 | > 100 µM | > 100 µM |  | > 100 µM | > 100 µM | > 100 µM |  | > 100 µM |  |  |  |  |  |  |  |  |  | 
CCOC(=O)c1cc(=O)oc2c1N(C)c1ncccc1N2 | > 100 µM | > 100 µM |  | > 100 µM | > 100 µM | > 100 µM |  | > 100 µM | > 100 µM |  |  |  |  |  |  |  |  | 
CC(=O)NNC(=S)/N=C/c1c(O)cc(C)oc1=O | > 100 µM | > 100 µM | > 100 µM | > 100 µM | > 100 µM |  | > 100 µM | > 100 µM |  |  |  |  |  |  |  |  |  | 
COc1ccc2c(c1)CCCN1CCc3cc(OC)c(OC)cc3C21 (stereo not drawn) | > 100 µM | > 100 µM | > 100 µM | > 100 µM | 56 µM | > 100 µM | > 100 µM | > 100 µM |  |  |  |  |  |  |  |  |  | 
O=C1CCCCC[C@]12SC[C@H]1CON=C12 | > 100 µM | > 100 µM | > 100 µM |  | 83.4 µM | > 100 µM | > 100 µM | > 100 µM | 77.1 µM |  |  |  |  |  |  |  |  | 
O=C(NCCCCNCCCNC(=O)c1cc(-c2ccccc2)nc2ccccc12)c1cc(-c2ccccc2)nc2ccccc12 | 3.01 µM | 3.46 µM |  |  | 5.09 µM | 6.33 µM | 3.81 µM | 3.42 µM | 3.97 µM |  |  |  |  |  |  |  |  | 
CC(C)CC1[C@@H](OCc2ccccc2)COS(=O)(=O)N1Cc1ccccc1 (stereo partly drawn) | > 100 µM | > 100 µM | > 100 µM | > 100 µM | > 100 µM | > 100 µM | > 100 µM | > 100 µM |  |  |  |  |  |  |  |  |  | 
CC1C(c2ccc3c(c2)OCO3)c2cc3c(cc2OC1N1CCCCC1)OCO3 (stereo not drawn) | > 100 µM | > 100 µM |  |  | > 100 µM | > 100 µM | > 100 µM | > 100 µM |  |  |  |  |  |  |  |  |  | 
COc1ccc(Cl)cc1NC(=O)c1c(NC(=O)C(F)(F)C(F)(F)F)sc2c1CCCCC2 | > 100 µM |  | 6.63 µM |  | 8.37 µM | 3.21 µM |  | > 100 µM | 5.28 µM | 2.54 µM | 2.13 µM | 1.8 µM | 0.523 µM | 1.73 µM | 1.9 µM |  |  | 
CC(=O)O[C@H]1C(=O)[C@@]2(C)[C@H]([C@H](OC(=O)c3ccccc3)[C@]3(O)C[C@H](OC(=O)[C@H](O)[C@@H](NC(=O)CC(C)C)c4ccccc4)C(C)=C1C3(C)C)[C@]1(OC(C)=O)CO[C@@H]1C[C@@H]2O | > 10 µM | > 10 µM | 0.00899 µM | > 10 µM | > 10 µM |  | 0.196 µM | > 10 µM |  |  |  |  |  |  |  |  |  | 
CCOC(=O)COc1c(OC)cc(C2C3=C(COC3=O)Oc3cc4c(cc32)OCO4)cc1OC (stereo not drawn) | > 100 µM | > 100 µM | 0.539 µM | > 100 µM | > 37.3 µM | 0.954 µM | 43 µM |  |  |  |  |  |  |  |  |  |  | 
COc1cc2cc(C(=O)N3CC(CCl)c4c3cc(N(C)C)c3ccccc43)[nH]c2c(OC)c1OC (stereo not drawn) |  | > 41.4 µM |  | > 100 µM |  | 0.501 µM | 0.0132 µM |  | 0.0334 µM |  |  |  |  |  |  |  |  | 
Cc1cc(O)c(/C=N/c2nc(-c3cccc([N+](=O)[O-])c3)cs2)c(=O)o1 | > 100 µM | > 100 µM | 47.2 µM | > 100 µM | > 100 µM |  | > 100 µM | > 100 µM |  |  |  |  |  |  |  |  |  | 
O=C(O)c1cc(O)c2c(c1)Cc1cccc(O)c1C2=O | > 100 µM | 33 µM | 47.2 µM | 52.4 µM | 93.9 µM | 53.2 µM |  | > 100 µM |  |  |  |  |  |  |  |  |  | 
CCOC(=O)c1c(C)[nH]c(/C=C2\N=C(c3ccc[nH]3)C=C2OC)c1C | 1.28 µM | 1.07 µM | 0.442 µM | 1.32 µM | 3.45 µM |  | 1.28 µM |  |  | 0.0457 µM | 0.0232 µM | 0.0457 µM |  |  |  | < 0.01 µM | 0.0263 µM | 0.0606 µM
